Reference: a melting point compilation (Tetko et al.; mined from patent text by program, amines drawn as free bases though some values may be those of a salt)

For C=C(C)C1CCC2C3CC(=O)C4=CC(=O)CCC4(C)C3CCC12C (centres undefined), the melting point was 148 to 150 °C.
With CCN(CC)c1ccc(-c2nc3ccc(OC(F)(F)F)cc3[nH]2)cc1 the melting point was 168 to 173 °C.
Cn1ccnc1S[Si](C)(C)C gave a melting point of 49 to 52 °C.
For CN1CCN(c2cc3nc(C(C)(C)C)sc3cc2N=C=O)CC1, the melting point was 124 to 126 °C.
Compound CCOC(=O)c1nnn(-c2ccc(C3=NNC(=O)NC3C)cc2)c1C(=O)OCC (centres undefined) has a melting point of 156 to 158 °C.
In the case of CSc1ncc(C=O)c(NC2CC2)n1, the melting point is reported as 69.5 to 70 °C.
With COC(=O)COc1nsc2nc(C)cc(C)c12 the melting point was 89 to 91 °C.
Work on O=C(O)c1cc(Oc2ccc(Cl)cc2Cl)c(O)cc1Cl yielded a melting point of 192 to 196 °C.
With COc1cc(C(=O)Cc2nnnn2C)c(N)cc1Cl the melting point was 178 to 181 °C.
With O=C1N(CO)CCN1C(c1ccccc1)c1ccccc1 the melting point was 134 °C.
For CC(C)OC(=O)c1cc(-n2c(=O)[nH]c3c(c2=O)CSC3)c(F)cc1Cl, the melting point was 180 to 183 °C.
CN(C(=O)Nc1ccc(Cl)cc1)c1nnc(Br)s1 gave a melting point of 250 °C.
Compound CC1Sc2nc(SCc3ccccc3)nn2C1=O (centres undefined) has a melting point of 85 to 87 °C.
CC(=O)c1ccc(F)c(S(N)(=O)=O)c1 showed a melting point of 135 °C.
Cn1c(=O)c2c(ncn2CCCCCC#N)n(C)c1=O gave a melting point of 86 to 88 °C.
In the case of CC(C)(CI)c1cc(Cl)nnc1Cl, the melting point is reported as 104 to 106 °C.
Work on CC(C)(C)OC(=O)c1ncn2c1[C@@H]1CCCN1C(=O)c1c-2cccc1[N+](=O)[O-] yielded a melting point of 231 to 233 °C.
CCOCc1nc2c(N)nc(C)c(C)c2n1NCCCS(C)(=O)=O showed a melting point of 150 to 155 °C.
In the case of Cc1oc(-c2ccccc2)nc1COc1cccc(CO)c1, the melting point is reported as 101 to 102 °C.
Work on Oc1cccc2c(Cl)ccnc12 yielded a melting point of 143 to 145 °C.
Work on O=[N+]([O-])c1ccc(Nc2cccc(O)c2)cc1 yielded a melting point of 158 to 160 °C.
CC(=O)Nc1ccc2c(c1)C(=O)N(CCO[N+](=O)[O-])CO2 gave a melting point of 141 to 142 °C.
COc1cccc(Cc2cc3ccc4ccccc4n3n2)c1 gave a melting point of 82 to 84 °C.
For C[C@H](NC(=O)c1ccc([N+](=O)[O-])cc1F)C(=O)O, the melting point was 136 to 138 °C.
In the case of O=C(NCCc1c[nH]c2ccccc12)OCC1CC1, the melting point is reported as 88 to 90 °C.
In the case of O=C1c2ccccc2C(=O)N1n1cccc1-c1ccccc1, the melting point is reported as 168 to 170 °C.
CCCCCCCCCCCCCCCCCCOc1cc(C(=O)OC)cc(C(=O)N(CC(=O)OCC)CC(=O)OCC)c1 gave a melting point of 57 to 60 °C.
Work on CCC(CC)Nc1c([N+](=O)[O-])cc(C)c(C=CN(C)C)c1[N+](=O)[O-] yielded a melting point of 100 to 102 °C.
O=C(CCC1CCN(Cc2ccccc2)CC1)c1cc2c3c(c1)CCN3C(=O)CC2 gave a melting point of 103 to 104 °C.
Compound Cc1cc(-n2ccnc2)c2cccc(OCc3c(Cl)ccc(S(=O)(=O)N4CCC[C@H]4C(=O)NCC4CCN(CCO)CC4)c3Cl)c2n1 has a melting point of 160 °C.
COC(=O)C(c1ccc(Cl)cc1)c1ncc(C(F)(F)F)cc1Cl (centres undefined) gave a melting point of 103 to 104 °C.
With Cc1c(SCc2ccsc2)ccnc1CSc1nc2ccccc2[nH]1 the melting point was 161 to 164 °C.
Compound COc1ccc(S(=O)(=O)N(C)c2cccc(-c3ccnc4c([N+](=O)[O-])cnn34)c2)cc1 has a melting point of 205 to 206 °C.
With CCOC(=O)c1nc(-c2cccc3ccccc23)no1 the melting point was 68 to 70 °C.
Work on CS(=O)c1ccc(-n2cnc3ccc(-c4nnc(CC(F)(F)F)o4)cc32)cc1 (centres undefined) yielded a melting point of 184 to 185 °C.
Work on Clc1ncnc2c1ncn2C1CCCCO1 (centres undefined) yielded a melting point of 70 to 71 °C.
In the case of CCCCCCCCCCCCCCCC(=O)Nc1c(C)cccc1C(=O)O, the melting point is reported as 106 to 113 °C.
Compound COc1ccc(S(=O)(=O)Nc2onc(C)c2Br)cc1OC has a melting point of 136 to 138 °C.
For CS(=O)(=O)c1ccc(Oc2ccc(Cc3ccccc3)cc2)cc1, the melting point was 109 to 110 °C.
For CCCCNc1c(C(=O)OCC)c(C)nc2[nH]nnc12, the melting point was 188 to 189 °C.
Work on CNc1nc(Cc2c(Cl)cccc2Cl)nc(Nc2ccc(C#N)cc2)n1 yielded a melting point of 229 to 230 °C.
With COC(=O)C1CCC2C3CCC4CC=CCC4(C)C3C(NCCC(C)C)CC12C (centres undefined) the melting point was 150 to 152 °C.
Compound CCOC(=O)c1[nH]c(CC)nc1C1CC1 has a melting point of 154 to 155 °C.
Compound Cc1nc(-c2ccc(C(F)(F)F)cc2)oc1COc1ccc(CCC(=O)O)cc1 has a melting point of 98 to 100 °C.
With COc1ccc(-c2cc3cc(OC)cc(C(C)(C)C#N)c3o2)cc1 the melting point was 146 to 148 °C.
For Cc1sc2c(c1C(=O)CCN1CCN(c3nsc4ccccc34)CC1)NC(=O)CCC2, the melting point was 146 to 147 °C.
Compound CCC(O)CN1CCC2(CC1)CSC1=C(O2)c2ccccc2C(=O)C1=O (centres undefined) has a melting point of 180 to 182 °C.
With OC1CCc2c(I)cccc21 (centres undefined) the melting point was 83 to 84 °C.
With CC(=O)N1CC(=O)NC(=O)N1Cc1ccc(Cl)cc1 the melting point was 97 °C.
Compound COC(=O)c1c(NC(C)=O)sc2c1CCCC2 has a melting point of 103 to 106 °C.
CC1=CC2C(=O)NC(=O)C2(Cc2ccccc2)C=C1 (centres undefined) showed a melting point of 128 to 130 °C.
With Cc1ccccc1NC(=O)N[C@H]1C[C@@](N)(C(=O)O)[C@@H]2[C@@H](C(=O)O)[C@@H]21 (relative stereo) the melting point was over 250 °C.
For CSc1nc(N)nc(SC)c1-c1ccc(Cl)cc1Cl, the melting point was 164 to 165 °C.
COCCNC(=O)c1cccc(-c2ccc(F)c3cc(Cc4cccc(C(F)(F)F)c4)sc23)c1 showed a melting point of 123 to 124 °C.
For Cc1c(Cl)ccc(NC(=O)CN2C(=O)c3ccccc3C2=O)c1Cl, the melting point was 245 to 246 °C.
In the case of COC(=O)C1=CCC(=C2CCC3=C(N=C(C(C)C)C(C(C)C)N3)C2=O)C=C1 (centres undefined), the melting point is reported as 100 to 102 °C.
With CCCN(c1ccc(C(=O)OCC)cc1)c1nc(=O)c2cccnc2s1 the melting point was 155 to 157 °C.
COc1cc(-n2c(=O)cc(C(F)(F)F)n(C)c2=O)c(F)cc1Cl gave a melting point of 128 to 130 °C.
CC(C)(C)c1ccc(-c2ccc(F)cc2)n1CC[C@H]1C[C@H](O)CC(=O)O1 (relative stereo) gave a melting point of 177 to 178 °C.
O=C(N[C@@H](Cc1ccc(Cl)cc1)C(=O)N1CCC(O)CC1)c1cc2cc(Cl)ccc2[nH]1 showed a melting point of 227 to 229 °C.
Work on CCOc1cc2c(O)c(C)cnc2nc1C yielded a melting point of 238 to 242 °C.
Cn1c(-c2ccccc2Cl)nnc1-c1ccccc1Cl showed a melting point of 140 °C.
Compound CC1COc2c(N3Cc4ccccc4C3)c(F)cc3c(=O)c(C(=O)O)cn1c23 (centres undefined) has a melting point of over 300 °C.
In the case of CS(=O)(=O)OCCC1c2ccccc2COc2ccccc21 (centres undefined), the melting point is reported as 64 to 66 °C.
COc1cc(C(=O)N2Cc3cccn3Cc3ccccc32)ccc1[N+](=O)[O-] showed a melting point of 191 to 192 °C.
With Clc1cnc2c(C(Cl)Cl)c(Cl)ccc2c1 the melting point was 154 °C.
COC1=CC(=O)OC1C(O)c1ccccc1C(F)(F)F (centres undefined) gave a melting point of 126 to 128 °C.
Compound CC(C)(C)OC(=O)N[C@@H](Cc1cncn1COCc1ccccc1)C(=O)O has a melting point of 155 to 157 °C.
Cn1nc2ccc(S)nn2c1=O showed a melting point of over 280 °C.
Cc1cc(N)n(C(=NO)c2cccc([N+](=O)[O-])c2)n1 showed a melting point of 224 to 226 °C.
In the case of Cc1cc(C2=NOC(c3cc(Cl)cc(Cl)c3)(C(F)(F)F)C2)ccc1C(=O)NC1CON(C)C1=O (centres undefined), the melting point is reported as 87 °C.
Work on CC(=O)NC1CCN(Cc2cnc3cc(NC(=O)c4ccc(-c5ccc(F)cc5)cc4)ccc3c2)C1 (centres undefined) yielded a melting point of 250 to 253 °C.
Compound O=c1[nH]c2ccccc2n1CCCN1CCN(c2n[nH]c3ccccc23)CC1 has a melting point of 178 to 180 °C.
Work on O=C(NCC1CC1)c1ccnc(N2CCN(Cc3ccc(F)cc3)C2=O)c1 yielded a melting point of 135 to 137 °C.
For O=C(OCC1OC(n2ccc(=O)[nH]c2=O)CC1OC(=O)c1ccccc1)c1ccccc1 (centres undefined), the melting point was 223 to 225 °C.
In the case of CCC1(C)CC(O)C2(C)CCC3c4ccc(OC)cc4CCC3C12 (centres undefined), the melting point is reported as 133 to 136 °C.
Compound CNc1cc(-c2ccc(Cl)cc2)nc2nn(C)cc12 has a melting point of 182 to 184 °C.
CCC(=O)c1cc(F)c(OCC2CC2(Cl)Cl)cc1F (centres undefined) gave a melting point of 89 to 91 °C.
Work on CCc1noc(-c2ncn(-c3cccnc3)c2COC)n1 yielded a melting point of 70 to 72 °C.
CCCCCCCCCCCCC1=C(OC)C(=O)c2ccccc2C1=O gave a melting point of 61 to 63 °C.
With CC(=O)Nc1cc2c(cc1Br)CCC2 the melting point was 138 °C.
Cc1ccccc1C(=O)c1nc[nH]c1C gave a melting point of 165 to 166 °C.
Compound CC(C)(C(=O)O)c1ccc(CCNS(=O)(=O)c2ccccc2)cc1 has a melting point of 86 to 88 °C.
In the case of C=CC(C)c1cc(C)c2c(c1O)C(N(C)C=O)C1CCCCC21 (centres undefined), the melting point is reported as 158 to 159 °C.
Compound Cc1cc2c(c3c1NC(=O)CC3)OC(CN(C)C(=O)CCCO)C2 (centres undefined) has a melting point of 141 to 143 °C.
With CCOC(=O)c1nc(-c2ccc(Cl)cc2Cl)n(-c2ccc(C(F)(F)F)cc2)c1C the melting point was 160 to 162 °C.
Work on Cc1nc2c(s1)-c1nc(N(C)c3cccc([N+](=O)[O-])c3)ncc1CC2 yielded a melting point of 203 to 204 °C.
Work on O=C(O)c1cccc(CC2COc3cc(O)ccc3C2=O)c1 (centres undefined) yielded a melting point of 234 to 236 °C.
For N#Cc1ccc(NS(=O)(=O)c2ccc([N+](=O)[O-])cc2[N+](=O)[O-])cc1, the melting point was 186 to 187 °C.
In the case of Cc1c(NC(=O)C(CSC(=O)OCC(C)C)Cc2ccccc2)cccc1C(=O)O (centres undefined), the melting point is reported as 165 to 167 °C.
With COc1ccc(-c2c(Cl)c(CCl)nc3sc4c(c23)CCN(Cc2ccccc2)C4)cc1 the melting point was 194 to 195 °C.
In the case of CCc1[nH]n(C2CCCC2)c2nc(Cc3ccc(C(F)(F)F)cc3)nc(=O)c1-2, the melting point is reported as 212 to 213 °C.
For CC(=O)N1CCN(c2ccc(NS(C)(=O)=O)c(C)c2)CC1, the melting point was 153 to 154 °C.
In the case of COc1cnc(Cl)n2nc(N)nc12, the melting point is reported as 251 °C.
In the case of CCCCC(=O)N[C@H]1CC[C@H](CCN2CCN(c3nccc4c3OCC4)CC2)CC1, the melting point is reported as 168 °C.
In the case of CSc1nc(CC2CCN(c3ccccc3)CC2)nc(C(=O)NCC(=O)O)c1O, the melting point is reported as 156 to 157 °C.
Work on CC(=O)OC1CSC(Oc2cccc(-c3cn(C)nc3C(F)(F)F)c2)C(OC(C)=O)C1OC(C)=O (centres undefined) yielded a melting point of 131 to 133 °C.
With CCCCCNC(=O)C(C)Cc1ccc2c(c1)c(Cc1ccc(C(=O)NS(=O)(=O)c3ccccc3C)cc1OC)cn2C (centres undefined) the melting point was 110 to 113 °C.
In the case of CC1(c2ccc(O)cc2)CC1(Cl)Cl (centres undefined), the melting point is reported as 125 to 126 °C.
With CCOC(=O)NC(=S)OCc1ccc(Cl)cc1 the melting point was 95 °C.
Work on CC#CC(C)(C)NC(=O)C(CC)Oc1ccc2ccncc2c1 (centres undefined) yielded a melting point of 149 to 150 °C.
For CC1(C(=O)O)c2ccccc2Oc2ccccc21, the melting point was 87 to 88 °C.
With CCCCCCCCCCCCc1ccc2c(Cl)cccc2c1O the melting point was 68 to 70 °C.
For NC1CCN(c2cnccn2)CC1, the melting point was 158 to 160 °C.
